Laboratory results reported in ChEMBL document CHEMBL1649380, “Prediction of drug intestinal absorption by new linear and non-linear QSPR” (Eur J Med Chem, 2011).

Assay: Drug absorption in human assessed as human intestinal absorption rate
Format: ADME, tissue-based, Intestine

Row | Compound | log10(%HIA +10)
1 | CCN1CCCC1CNC(=O)c1cc(S(=O)(=O)CC)ccc1OC (stereo not drawn) [SULTOPRIDE] | 1.996
2 | CCN1CCCC1CNC(=O)c1cc(S(N)(=O)=O)ccc1OC (stereo not drawn) [SULPIRIDE] | 1.732
3 | CN1[C@@H]2CC[C@H]1C[C@@H](OC(=O)C(CO)c1ccccc1)C2 (stereo partly drawn) [ATROPINE] | 2.033
4 | O=C(N[C@H](CO)[C@H](O)c1ccc([N+](=O)[O-])cc1)C(Cl)Cl [CHLORAMPHENICOL] | 2
5 | COc1ccccc1N1CCN(CCCNc2cc(=O)n(C)c(=O)n2C)CC1 | 1.945
6 | CCCc1cc(=O)[nH]c(=S)[nH]1 [PROPYLTHIOURACIL] | 1.929
7 | COc1cccc(C(=O)CCN[C@@H](C)[C@H](O)c2ccccc2)c1 [OXYFEDRINE] | 1.978
8 | O=CN(O)CCCP(=O)(O)O [FOSMIDOMYCIN] | 1.602
9 | CCCCNC(=O)NS(=O)(=O)c1ccc(C)cc1 [TOLBUTAMIDE] | 1.978
10 | CNC(=C[N+](=O)[O-])NCCSCc1ccc(CN(C)C)o1 [RANITIDINE] | 1.798
11 | CC[C@@H](CO)NCCN[C@@H](CC)CO [ETHAMBUTOL] | 1.954
12 | CC1(C)S[C@@H]2[C@H](NC(=O)[C@H](NC(=O)N3CCNC3=O)c3ccccc3)C(=O)N2[C@H]1C(=O)O [AZLOCILLIN] | 1
13 | COc1nc(C)nc(Cl)c1N=C1NCCN1 [MOXONIDINE] | 1.991
14 | OCCOCCN1CCN(C2=Nc3ccccc3Sc3ccccc32)CC1 [QUETIAPINE] | 1.919
15 | C[C@@H](O)[C@H]1C(=O)N2C(C(=O)O)=C(SCCN=CN)C[C@H]12 [IMIPENEM ANHYDROUS] | 1.176
16 | NC(=O)OCC(COC(N)=O)c1ccccc1 [FELBAMATE] | 2
17 | Cc1cccc(C)c1NC(=O)NCCCNC(C)C | 1.909
18 | CC(C)NCC(O)COc1ccc(CC(N)=O)cc1 (stereo not drawn) [ATENOLOL] | 1.785
19 | OCCN(CCO)c1nc(N2CCCCC2)c2nc(N(CCO)CCO)nc(N3CCCCC3)c2n1 [DIPYRIDAMOLE] | 1.833
20 | C[C@@H]1[C@H](O)[C@@H](C)/C=C/C=C/C=C/C=C/C=C/C=C/C=C/[C@H](O[C@@H]2O[C@H](C)[C@@H](O)[C@H](N)[C@@H]2O)C[C@@H]2O[C@](O)(C[C@@H](O)C[C@@H](O)[C@H](O)CC[C@@H](O)C[C@@H](O)CC(=O)O[C@H]1C)C[C@H](O)[C@H]2C(=O)O [AMPHOTERICIN B] | 1.176
21 | Cc1cc(C(=O)NNCc2ccccc2)no1 [ISOCARBOXAZID] | 1.903
22 | CCOC(=O)[C@H](CCc1ccccc1)N[C@@H](C)C(=O)N1[C@H](C(=O)O)C[C@@H]2CCC[C@@H]21 | 1.845
23 | CC(C(=O)O)c1cccc(C(=O)c2ccccc2)c1 (stereo not drawn) [KETOPROFEN] | 2.009
24 | N=C(N)N/N=C/c1c(Cl)cccc1Cl [GUANABENZ] | 1.954
25 | Nc1ncnc2c1ncn2CCOCP(=O)(O)O [ADEFOVIR] | 1.342
26 | N=C(N)c1ccc(OCCCCCOc2ccc(C(=N)N)cc2)cc1 [PENTAMIDINE] | 1

Row | Compound | log10(%HIA +10)
27 | CC(C)(C)NC[C@H](O)COc1nsnc1N1CCOCC1 [TIMOLOL] | 2.021
28 | NS(=O)(=O)c1cc(C(=O)O)c(NCc2ccco2)cc1Cl [FUROSEMIDE] | 1.851
29 | CO/N=C(\C(=O)N[C@@H]1C(=O)N2C(C(=O)O)=C(COC(N)=O)CS[C@H]12)c1ccco1 [CEFUROXIME] | 1.176
30 | CC(C)NCC(O)c1ccc(NS(C)(=O)=O)cc1 (stereo not drawn) [SOTALOL] | 2.021
31 | Nc1nc(O)c2ncn(COC(CO)CO)c2n1 [GANCICLOVIR] | 1.134
32 | N[C@@H]1CON=C1O [CYCLOSERINE] | 1.919
33 | CC[C@H]1OC(=O)[C@H](C)[C@@H](O[C@H]2C[C@@](C)(OC)[C@@H](O)[C@H](C)O2)[C@H](C)[C@@H](O[C@@H]2O[C@H](C)C[C@H](N(C)C)[C@H]2O)[C@](C)(O)C[C@@H](C)CN(C)[C@H](C)[C@@H](O)[C@]1(C)O [AZITHROMYCIN] | 1.663
34 | NC(CO)C(=O)NNCc1ccc(O)c(O)c1O (stereo not drawn) [BENSERAZIDE] | 1.903
35 | Cc1onc(-c2c(F)cccc2Cl)c1C(=O)N[C@@H]1C(=O)N2[C@@H]1SC(C)(C)[C@@H]2C(=O)O [FLOXACILLIN] | 1.699
36 | O=C(O)c1cc(=O)c2c(OCC(O)COc3cccc4oc(C(=O)O)cc(=O)c34)cccc2o1 [CROMOLYN] | 1.021
37 | C[C@@H](O)[C@H]1C(=O)N2C(C(=O)O)=C(S[C@@H]3CN[C@H](C(=O)N(C)C)C3)[C@H](C)[C@H]12 [MEROPENEM] | 1
38 | O=P(O)(O)C(O)(Cc1cccnc1)P(=O)(O)O [RISEDRONIC ACID] | 1.041
39 | GENTAMICIN | 1
40 | N=C(N)NCC1COc2ccccc2O1 (stereo not drawn) [GUANOXAN] | 1.778
41 | CCCC(=O)Nc1ccc(OCC(O)CNC(C)C)c(C(C)=O)c1 (stereo not drawn) [ACEBUTOLOL] | 1.999
42 | NC[C@H]1O[C@H](O[C@H]2[C@H](O)[C@@H](O[C@H]3O[C@H](CO)[C@@H](O)[C@H](N)[C@H]3O)[C@H](N)C[C@@H]2N)[C@H](O)[C@@H](O)[C@@H]1O [KANAMYCIN] | 1.041
43 | N=C(N)NC(=O)c1nc(Cl)c(N)nc1N [AMILORIDE] | 1.778
44 | C[C@@H]1O[C@@H]1P(=O)(O)O [FOSFOMYCIN] | 1.613
45 | CCC[C@@H]1C[C@@H](C(=O)N[C@@H]([C@H]2O[C@H](SC)[C@H](O)[C@@H](O)[C@H]2O)[C@@H](C)O)N(C)C1 [LINCOMYCIN] | 1.574
46 | CC1(C)S[C@@H]2[C@H](NC(=O)[C@H](N)c3ccc(O)cc3)C(=O)N2[C@H]1C(=O)O [AMOXICILLIN] | 2.016
47 | O=C(O)c1ccccc1C(=O)Nc1ccc(S(=O)(=O)Nc2nccs2)cc1 [PHTHALYLSULFATHIAZOLE] | 1.176
48 | NS(=O)(=O)c1cc2c(cc1Cl)NCNS2(=O)=O [HYDROCHLOROTHIAZIDE] | 1.875
49 | C[C@]12CCC(=O)C=C1CC[C@@H]1[C@@H]2[C@@H](O)C[C@@]2(C)[C@H]1CC[C@]2(O)C(=O)CO [HYDROCORTISONE] | 2.004
50 | CC[C@H](C)C(=O)O[C@H]1C[C@@H](C)C=C2C=C[C@H](C)[C@H](CC[C@@H]3C[C@@H](O)CC(=O)O3)[C@H]21 [LOVASTATIN] | 1.608
51 | O=C1c2c(O)ccc(O)c2C(=O)c2c(NCCNCCO)ccc(NCCNCCO)c21 [MITOXANTRONE] | 1.176
52 | CN(C)CCc1c[nH]c2ccc(CS(=O)(=O)N3CCCC3)cc12 [ALMOTRIPTAN] | 1.929

Row | Compound | log10(%HIA +10)
53 | CN(N=O)C(=O)N[C@@H](C=O)[C@@H](O)[C@H](O)[C@H](O)CO [STREPTOZOCIN] | 1
54 | NCCC(O)(P(=O)(O)O)P(=O)(O)O [PAMIDRONIC ACID] | 1.176
55 | CCOC(=O)[C@H](CCc1ccccc1)N[C@@H](C)C(=O)N1Cc2cc(OC)c(OC)cc2C[C@H]1C(=O)O [MOEXIPRIL] | 1.176
56 | CC(C)Cc1ccc(C(C)C(=O)O)cc1 (stereo not drawn) [IBUPROFEN] | 2.041
57 | CCOC(=O)[C@H](CCc1ccccc1)N[C@@H](C)C(=O)N1[C@H](C(=O)O)C[C@H]2CCCC[C@@H]21 [TRANDOLAPRIL] | 1.778
58 | NC(N)=Nc1nc(CSCCC(N)=NS(N)(=O)=O)cs1 [FAMOTIDINE] | 1.681
59 | CCc1cccc2c3c([nH]c12)C(CC)(CC(=O)O)OCC3 (stereo not drawn) [ETODOLAC] | 1.903
60 | N[C@@H](C(=O)N[C@@H]1C(=O)N2C(C(=O)O)=C(CSc3c[nH]nn3)CS[C@H]12)c1ccc(O)cc1 [CEFATRIZINE] | 1.934
61 | O=C1NS(=O)(=O)c2ccccc21 [SACCHARIN] | 1.991
62 | CO[C@H]1C[C@H](O[C@H]2CC[C@]3(C=O)[C@H]4CC[C@]5(C)[C@@H](C6=CC(=O)OC6)CC[C@]5(O)[C@@H]4CC[C@]3(O)C2)O[C@H](C)[C@H]1O [CYMARIN] | 1.756
63 | O=C1Cc2cc(CCN3CCN(c4nsc5ccccc45)CC3)c(Cl)cc2N1 [ZIPRASIDONE] | 1.845
64 | CC(C)NCC(O)COc1ccc(CCOCC2CC2)cc1 (stereo not drawn) [BETAXOLOL] | 2
65 | Cc1cc(=O)n(-c2ccccc2)n1C [ANTIPYRINE] | 2.041
66 | NC[C@@H]1O[C@H](O[C@H]2[C@@H](O)[C@H](O[C@@H]3[C@@H](O)[C@H](N)C[C@H](N)[C@H]3O[C@H]3O[C@H](CN)[C@@H](O)[C@H](O)[C@H]3N)O[C@@H]2CO)[C@H](N)[C@@H](O)[C@@H]1O [FRAMYCETIN] | 1.041
67 | Oc1ccc(C(O)C2CCCCN2)cc1O (stereo not drawn) [RIMITEROL] | 1.763
68 | CN1C[C@H](C(=O)N[C@]2(C)O[C@@]3(O)[C@@H]4CCCN4C(=O)[C@H](Cc4ccccc4)N3C2=O)C[C@@H]2c3cccc4[nH]cc(c34)C[C@H]21 [DIHYDROERGOTAMINE] | 1.653
69 | C=CCNc1nc(NCC=C)nc(N2CCN(C(c3ccc(F)cc3)c3ccc(F)cc3)CC2)n1 [ALMITRINE] | 2
70 | CCOC(=O)[C@H](CCc1ccccc1)N[C@@H](C)C(=O)N1CCC[C@H]1C(=O)O.O=C(O)/C=C\C(=O)O [ENALAPRIL MALEATE] | 1.881
71 | NC[C@H]1O[C@H](O[C@H]2[C@H](O)[C@@H](O[C@H]3O[C@H](CO)[C@@H](O)[C@H](N)[C@H]3O)[C@H](N)C[C@@H]2N)[C@H](N)C[C@@H]1O [TOBRAMYCIN] | 1
72 | Cn1c(=O)c2c(ncn2C)n(C)c1=O [CAFFEINE] | 2.041
73 | O=c1[nH]c(=O)n([C@H]2C[C@H](O)[C@@H](CO)O2)cc1/C=C/Br [BRIVUDINE] | 1.58
74 | C[C@](N)(Cc1ccc(O)c(O)c1)C(=O)O [METHYLDOPA] | 1.708
75 | C[C@H]1O[C@H](O[C@H]2[C@H](O)[C@@H](O)[C@@H](O[C@H]3[C@H](O)[C@@H](O)C(O)O[C@@H]3CO)O[C@@H]2CO)[C@H](O)[C@@H](O)[C@@H]1N[C@H]1C=C(CO)[C@@H](O)[C@H](O)[C@H]1O (stereo partly drawn) [ACARBOSE] | 1.079
76 | CC(=O)Nc1ccc(O)cc1 [ACETAMINOPHEN] | 1.978
77 | CC(C)NCC(O)COc1cccc2ccccc12 (stereo not drawn) [PROPRANOLOL] | 2.037
78 | COc1cccc2c1C(=O)c1c(O)c3c(c(O)c1C2=O)C[C@@](O)(C(=O)CO)C[C@@H]3O[C@H]1C[C@H](N)[C@H](O)[C@H](C)O1 [DOXORUBICIN] | 1.176
